According to US20060020029A1, “Pharmaceutical compositions from ethnobotanicals” (priority 2004, published 2006):
Values after ≈ are worked out from the molar mass of the structure shown. Values joined by “and” are separate entries in the source; they are usually repeats but may differ in a detail not shown here. Equal entries are not always repeated. Where two headings read alike, the source gives them in different places.

Columns and labels:
Hep-2 cells = assay: Cytotoxicity (MTS) in uninfected Hep-2 cells; conditions: isolated compounds
Vero cells = assay: Cytotoxicity (MTS) in uninfected Vero cells; conditions: isolated compounds
RSV B = assay: CPE assay, RSV-B in Hep-2 cells; format: cell-based, respiratory syncytial virus
[1] = system: Influenza A-Shangdong/09/93 (H3N2); assay: CPE assay, influenza A specificity; format: cell-based, influenza type A; conditions: CPE assay with MDCK or Vero cells
Description: (§1) To determine whether the fractions are specific RSV inhibitors rather than general antiviral agents, the inventors tested them against influenza type A/Shangdong/09/93 (H3N2), herpes simplex type 1 (MacItyre), and herpes simplex type 2 (MS) using the CPE assay system.
(§2) CJ4-16-4 was tested using influenza type A, herpes simplex virus type 1, and herpes simplex virus type 2 using the CPE assay with MDCK or Vero cells.

[2] = system: Herpes simplex virus type 2 (MS-strain); assay: CPE assay, HSV-2 specificity; format: cell-based; conditions: CPE assay with MDCK or Vero cells
Description: as §1, §2

MDCK cells = assay: Cytotoxicity in MDCK cells; conditions: isolated compounds
[3] = system: RSV-Long (Cotton Rat adapted strain); assay: CPE assay, RSV-Long cotton rat adapted strain; format: cell-based, respiratory syncytial virus; conditions: Hep-2 cells, CPE assay
RSV-A2 = assay: CPE assay, RSV-A2 in Hep-2 cells; conditions: Hep-2 cells, CPE assay
Description: The cell line was propagated in MEM supplemented with 10% heat-inactivated fetal bovine serum (FBS) containing 100 μg/ml of antibiotics (streptomycin/penicillin). […] The overnight medium (MEM containing 10% FBS) was removed, and wells were rinsed twice with 1× phosphate buffer saline (PBS, 200 μl) before adding 10×TCID50 of RSV suspension in fresh medium (MEM plus 2% FBS) to each well, except for cell only wells. […] CellTiter 96 Aqueous Non-Radioactive Cell Proliferation Assay (Promega) was used to monitor the antiviral activity following the manufacturer's instruction. After incubation, the cells were rinsed twice with 200 μl of 1×PBS prior to the addition of 100 μl of fresh medium (MEM plus 10% FBS). […] The extent of cell viability was measured at 490 nm using an ELISA reader, and the absorbance was used to calculate percent inhibition. Antiviral activity of each EB fraction or ribavirin is expressed as IC50, which represents the concentration of the test substance required to reduce the virus infection (as measured by the destruction of the host cells) by 50%.
Hep-2 cells were used in the CPE assay to determine anti-RSV properties.

[4] = system: Herpes simplex virus type 1 (MacIntyre strain); assay: CPE assay, HSV-1 specificity; format: cell-based; conditions: CPE assay with MDCK or Vero cells
Description: as §1, §2

RSV (Long strain) = assay: CPE assay, RSV-Long in Hep-2 cells; format: cell-based, respiratory syncytial virus
in vitro [5] = conditions: human
in vitro [6] = conditions: African green monkey
RSV-Long [7] = assay: Plaque reduction assay (PRA); format: cell-based; conditions: human respiratory syncytial virus, HEp-2; Table 3, plaque reduction assay
Description: The materials and methods used for PRA are as follows. […] The overlay was prepared by mixing 1 part of 1.2% SeaPlaque and 1 part 2×MEM containing 4% FBS, plus appropriate concentrations of each EB fraction or ribavirin. Each concentration of the EB fraction or ribavirin was tested in duplicate wells. After 7 days, the agarose was carefully removed and cells were rinsed twice with 2 ml of PBS. The cell monolayer was fixed using 0.2% crystal violet in 20% methanol at room temperature. After 30 minutes, the fixer was removed by washing with deionized water, and the plates were air-dried prior to counting plaques. The number of plaques obtained for each fraction or ribavirin was expressed as a percentage of the control. The percentage values obtained were used to calculate IC50 values.

RSV A2 = assay: Cotton rat RSV infection model, pulmonary titer
Description: All groups consisted of four randomly selected cotton rats. All test materials were administered intraperitoneally with once daily dosing. The placebo group was administered distilled water at volumes and schedules identical to the other groups receiving investigational test articles. In general, timing of administration of ribavarin to the ribavarin-treated group paralleled that of the other treatment groups except that initiation of dosing was on Day 1 for Experiments 1 and 2 and Day 0 for Experiment 3. The dose of ribavarin was 90 mg/kg/day in Experiments 1 and 3 and 180 mg/kg/day in Experiment 2. All animals were inoculated intranasally with approximately 100 median cotton rat infectious doses (CRID50) of RSV A2 on Day 0. Experiments were terminated on either Day 3 or 4 post-infection. […] On the day that the experiment was terminated, all CRs were sacrificed using CO2 to asphyxiate the animals. The lungs from the animals were subsequently removed. The lungs of sacrificed animals were removed, rinsed in sterile phosphate-buffered saline (PBS; pH 7.2) and weighed. Each set of lungs was then transpleurally lavaged using 3 ml of 2% FCS-MEM media. The resulting lung fractions were kept on ice until they were assayed for RSV. The lung fractions of animals from each group were tested for the levels of RSV present.

RSV [8] = assay: Viral yield assay (VYA); format: cell-based, respiratory syncytial virus
Description: The materials and methods used for VYA are as follows. […] Each concentration of the test articles or control drug was tested in triplicate wells. […] The aliquots from each of the eight wells of a given column were transferred to the first column of a fresh 96-well monolayer culture of Hep-2 cells. The contents were mixed and serially diluted across the remaining columns of the secondary plate. Each column of the original primary plate was diluted across a separate plate in this manner. The cultures were incubated for 7 additional days, and the end point was monitored by CPE assay as described above.

RSV [9] = assay: Limited pretreatment of host cells, CPE assay; format: cell-based, respiratory syncytial virus; conditions: removed before infection
Description: A limited pretreatment of host cells with EB fractions was investigated as follows. […] The cells were incubated in fresh medium without the test article. After 7 days, the viral inhibition was evaluated using CPE assay protocol.

RSV-Long [10] = assay: Time of addition, CPE assay; format: cell-based, respiratory syncytial virus; conditions: human respiratory syncytial virus
Description: Determine the Time of Addition for EB Fractions. […] This activity is related to the life cycle of the virus and the step in the cycle where the compounds act. In this example, experiments were performed to investigate the effect of the time of addition of EB fractionated products on anti-RSV activity.
Mechanism of action studies were performed as follows. Mechanism of action studies were performed using CJ4-16-4 in a CPE assay with Hep-2 cells.

RSV-Long [11] = assay: Viral RNA analysis (RiboGreen); format: cell-based, respiratory syncytial virus; conditions: for RNA Concentration: three days
Description: The method for analysis of viral RNA is as follows. Six well plates were infected with 1 ml stock of RSV-Long (10×TCID50) diluted 1:20 in infection medium (DMEM+2% FBS). The plates were incubated in 37° C. incubators for 60 min, after which the inoculum was removed and the plates were rinsed. […] Each concentration was added in duplicate. […] After three days, the culture supernatants were transferred into clean conical tubes and subjected to centrifugation at low speed to remove cell debris. […] RNA was extracted using a commercial RNA extraction kit purchased from Epicentre Technologies (Madison, WI). The procedure was performed according to the manufacturer's instructions, and samples were stored at −20° C. The level of viral RNA in each sample was determined using the RiboGreen® RNA quantitative kit (Molecular Probes, Eugene, Oreg.) according the manufacturer's instructions.

[12] = human respiratory syncytial virus, HEp-2, Table 2, extracted fractions, average of two or three experiments
[13] = 90 mg/kg/day B.I.D i.p. D0-D3, water, harvest day 4

Compound: O=C(/C=C/c1ccc(O)c(O)c1)O[C@H]1[C@H](O)C[C@](O)(C(=O)O)C[C@H]1OC(=O)/C=C/c1ccc(O)c(O)c1 [CJ2-27-4, 4,5-dicaffeoylquinic acid]
- CC50, Hep 2 (Hep-2 cells): >200 µg/mL
- CC50, Vero (Vero cells): >200 µg/mL
- EC50, RSV-B (Washington) (RSV B; Hep-2 cells, CPE assay): 0.218 µg/mL (≈ 0.422 µM)
- EC50, Influenza A-Shangdong/09/93 (H3N2) [1]: >50 µg/mL
- EC50, Herpes simplex virus type 2 (MS-strain) [2]: >50 µg/mL
- CC50, MDCK (MDCK cells): >200 µg/mL
- EC50, RSV-Long (Cotton Rat adapted strain) [3]: 5.519 µg/mL (≈ 10.7 µM)
- EC50, RSV-A2 (RSV-A2): 0.521 µg/mL (≈ 1.01 µM)
- EC50, Herpes simplex virus type 1 (MacIntyre strain) [4]: >50 µg/mL
- EC50, RSV-Long (RSV (Long strain); Hep-2 cells, CPE assay): 0.052 µg/mL (≈ 0.101 µM)

Compound: NC(=O)c1ncn([C@@H]2O[C@H](CO)[C@@H](O)[C@H]2O)n1 [Ribavirin]
- CC50 at 7 days (in vitro [5]): 76.4 ± 4.4 µg/mL (≈ 313 µM)
- CC50 at 7 days (in vitro [6]): > 100 µg/mL
- IC50 (RSV-Long [7]): 3.84 µg/mL (≈ 15.7 µM)
- IC50 (RSV B; [12]): 3.2 ± 0.5 µg/mL (≈ 13.1 µM)
- Reduction (RSV A2; 90 mg/kg/day B.I.D i.p. D0-D3, vs placebo): 2.9 Log 10
- RSV Pulmonary Titer Mean ± SD (RSV A2; [13]): 1.5 ± 1.8 log10/g lung
- RSV Pulmonary Titer in individual CR (A-D) (RSV A2; [13]): 2.8 log10/g lung and 3.3 log10/g lung and 0 log10/g lung (2×)
- reduction of mean viral titer (RSV A2; Experiment 1): 2.5 logs
- RSV pulmonary Mean Titers ± SD (RSV A2; Experiment 1: 100 mg/kg/day i.p. (ribavirin 90 mg/kg/day), harvest Day 4): 3.1 ± 0.29 log 10
- reduction of mean viral titer (RSV A2; Experiment 2): 2.5 logs
- RSV pulmonary Mean Titers ± SD (RSV A2; Experiment 2: 100 mg/kg/day i.p. from Day -1 (ribavirin 180 mg/kg/day), harvest Day 3): 2.3 ± 0.4 log 10
- reduction of mean viral titer (RSV A2; Experiment 3): 2.5 logs
- RSV pulmonary Mean Titers ± SD (RSV A2; Experiment 3: 250 mg/kg/day i.p. from Day -1 (ribavirin 90 mg/kg/day), harvest Day 3): 2.2 ± 1.5 log 10
- Overall Mean Titer (RSV A2; three experiments): 2.53 ± 0.73 log 10
- reduction of overall mean viral titer (RSV A2; three experiments): 2.5 logs
- animals with no detectable virus (RSV A2; three experiments combined): 1 out of 12
- Mean Titer (RSV [8]; 3.1 μg/ml): 3 log 10
- Reduction of viral titer (RSV [8]; 3.1 μg/ml): 1 log10
- Mean Titer (RSV [8]; 25.0 μg/ml): 2 log 10
- Reduction of viral titer (RSV [8]; 25.0 μg/ml): 2 log10
- IC50 (RSV [9]; human respiratory syncytial virus, pre-treatment time 4 hrs, read-out: IC50): > 50 µg/mL
- IC50 (RSV [9]; pre-treatment time 0 hrs): >50 µg/mL
- IC50 (RSV [9]; pre-treatment time 8 hrs): >50 µg/mL
- IC50 (RSV [9]; pre-treatment time 24 hrs): >50 µg/mL
- IC50 (RSV-Long [10]; addition 0 h, 10×TCID50 RSV-Long, Hep-2): 3.6 ± 0.36 µg/mL (≈ 14.7 µM)
- IC50 (RSV-Long [10]; addition +7 h post-infection): 3.9 ± 0.64 µg/mL (≈ 16 µM)
- IC50 (RSV-Long [10]; addition +26 h post-infection): 4.43 ± 0.88 µg/mL (≈ 18.1 µM)
- IC50 (RSV (Long strain); [12]): 3.8 ± 0.2 µg/mL (≈ 15.6 µM)
- RNA Concentration (RSV-Long [11]; drug concentration 1 μg/ml): 450 ng/mL
- RNA Concentration (RSV-Long [11]; drug concentration 20 μg/ml): 225 ng/mL
- reduction of viral RNA (RSV-Long [11]; drug concentration increased from 1 to 20 μg/ml): 2 fold
